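1) Cells in 96-well plates. 2) Compound, 48 h, 5 concentrations. 3) Linear interpolation between surrounding doses. 4) Unreached endpoint = highest concentration. GI50 marks 50% less growth. TGI: concentration producing complete growth inhibition.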
How the values were obtained:
Assay in all cases: NCI anticancer screen, dose series, 48 h
OVCAR-8 ovarian = tested on: OVCAR-8 ovarian
HOP-62 NSCLC = tested on: HOP-62 NSCLC
M14 melanoma = tested on: M14 melanoma
HS 578T breast = tested on: HS 578T breast
K-562 leukemia = tested on: K-562 leukemia
SF-268 CNS = tested on: SF-268 CNS
A549 NSCLC = tested on: A549 NSCLC
SN12C renal = tested on: SN12C renal
HCT-116 colon = tested on: HCT-116 colon
HOP-92 NSCLC = tested on: HOP-92 NSCLC

SMILES	GI50 (OVCAR-8 ovarian)	TGI (OVCAR-8 ovarian)	GI50 (HOP-62 NSCLC)	TGI (HOP-62 NSCLC)	GI50 (M14 melanoma)	TGI (M14 melanoma)	GI50 (HS 578T breast)	TGI (HS 578T breast)	GI50 (K-562 leukemia)	TGI (K-562 leukemia)	GI50 (SF-268 CNS)	TGI (SF-268 CNS)	GI50 (A549 NSCLC)	TGI (A549 NSCLC)	GI50 (SN12C renal)	TGI (SN12C renal)	GI50 (HCT-116 colon)	TGI (HCT-116 colon)	TGI (HOP-92 NSCLC)	GI50 (HOP-92 NSCLC)
Clc1ccc(-c2c3c(nn2-c2ccccn2)CCc2ccccc2-3)cc1Cl	> 100 µM	> 100 µM	50.2 µM	> 100 µM	34 µM	> 100 µM	> 100 µM	> 100 µM	> 100 µM	> 100 µM	> 100 µM	> 100 µM	> 100 µM	> 100 µM	> 100 µM	> 100 µM	76.1 µM	> 100 µM	–	–
C[C@]12CC/C(=N\O)C=C1CC[C@@H]1C2CC[C@@]2(C)C1CC[C@@H]2OC1CCCCO1 (stereo partly specified)	–	> 100 µM	–	> 100 µM	–	35.3 µM	–	–	–	46.3 µM	–	55.2 µM	–	53 µM	–	> 10 µM	–	43.8 µM	31.9 µM	–
CC(C)([NH-])CO.CC(C)([NH-])CO.[Cl][Cd][Cl]	52.8 µM	> 100 µM	> 100 µM	> 100 µM	18 µM	33.4 µM	–	–	18.7 µM	40 µM	18.4 µM	35.3 µM	30.2 µM	> 100 µM	–	–	18.8 µM	33.8 µM	34 µM	19.3 µM
Cn1cnc([N+](=O)[O-])c1Sc1nccn1-c1cccc2ccccc12	–	58.8 µM	–	> 100 µM	–	61 µM	–	–	–	> 100 µM	–	84.2 µM	–	> 100 µM	–	> 100 µM	–	60.3 µM	54.9 µM	–
Cc1cccc(C(C)(C)C)c1NC(=O)CC1C(=O)Nc2ccccc2S1(=O)=O (stereo unspecified)	–	22.4 µM	–	–	–	27.8 µM	–	–	–	13 µM	–	25.5 µM	–	27.9 µM	–	25.7 µM	–	22.3 µM	25.3 µM	–
CC(=O)C1C(c2ccc(N(C)C)cc2)c2cc3c(cc2OC1(C)O)OCO3 (stereo unspecified)	–	> 100 µM	–	> 100 µM	–	> 100 µM	–	–	–	63.5 µM	–	–	–	> 100 µM	–	> 100 µM	–	> 100 µM	55.4 µM	–
COc1c2ccoc2c(OC)c2oc(=O)ccc12	–	> 100 µM	–	> 100 µM	–	> 100 µM	–	> 100 µM	–	> 100 µM	–	> 100 µM	–	> 100 µM	–	> 100 µM	–	> 100 µM	–	–
COC(=O)C(C(=O)OC)C1CCCC(=O)C1 (stereo unspecified)	–	> 100 µM	–	> 100 µM	–	> 100 µM	–	–	–	> 100 µM	–	> 100 µM	–	> 100 µM	–	> 100 µM	–	> 100 µM	> 100 µM	–
Cc1ccc(NC(=O)CC2Sc3ccccc3NC2=O)c(C)c1 (stereo unspecified)	–	37.4 µM	–	34 µM	–	36.5 µM	–	–	–	19 µM	–	60.7 µM	–	39.7 µM	–	> 100 µM	–	22 µM	39.5 µM	–
O=C(c1ccccc1)C1OC12C(=O)Nc1c(Cl)cc(Cl)cc12 (stereo unspecified)	–	51.1 µM	–	> 100 µM	–	> 82.4 µM	–	–	–	46.1 µM	–	> 100 µM	–	> 100 µM	–	> 91.2 µM	–	> 71.9 µM	> 93.2 µM	–
CCN(CC)CC(O)CNc1c2ccc([N+](=O)[O-])cc2nc2cc(OC)c(OC)cc12 (stereo unspecified)	0.55 µM	11 µM	–	–	0.368 µM	1.55 µM	0.728 µM	5.09 µM	0.396 µM	10.9 µM	0.293 µM	1.34 µM	0.262 µM	0.854 µM	0.335 µM	2.79 µM	0.2 µM	0.636 µM	0.642 µM	0.164 µM
COc1cc(C(=O)N2CCN(c3ncnc4ccccc34)CC2)c(N)cc1OCc1ccccc1	–	–	–	–	15.2 µM	28.6 µM	17.1 µM	55.7 µM	16.1 µM	42.8 µM	14.1 µM	30.1 µM	16.5 µM	50.5 µM	18.3 µM	32.3 µM	10.7 µM	22.6 µM	36.3 µM	15.4 µM
Cc1ccc(S(=O)(=O)NC2(C=O)CCCC3CCCCC32)cc1 (stereo unspecified)	–	> 100 µM	–	> 100 µM	–	> 100 µM	–	–	–	> 100 µM	–	> 100 µM	–	> 100 µM	–	> 100 µM	–	> 100 µM	–	–
O=C(Nc1ccc(Cl)c(Cl)c1)Nc1c(Oc2ccc(Cl)c(Cl)c2)ccc(Cl)c1S(=O)(=O)O	3.7 µM	> 100 µM	–	–	1.09 µM	> 100 µM	2.21 µM	8.79 µM	0.516 µM	> 100 µM	3.82 µM	> 100 µM	3.53 µM	> 100 µM	4.48 µM	> 100 µM	1.32 µM	> 100 µM	–	–
C=C1CCC2C3(C)COC(c4ccccc4)OC3CCC2(C)C1/C=C/C1=CCOC1=O (stereo unspecified)	4.11 µM	> 100 µM	22.9 µM	46.7 µM	6.4 µM	36.7 µM	1.86 µM	8.61 µM	2.31 µM	> 100 µM	5.22 µM	22.5 µM	6.87 µM	48.1 µM	3.82 µM	15.9 µM	1.95 µM	5.64 µM	–	–
CN1C(=O)C2C3C=C4c5ccccc5N(c5ccccc5)C4(C2C1=O)[C@H]1C(=O)N(C)C(=O)[C@@H]31 (stereo partly specified)	–	> 100 µM	–	> 100 µM	–	> 100 µM	–	–	–	> 100 µM	–	> 100 µM	–	> 100 µM	–	> 100 µM	–	> 100 µM	> 100 µM	–
CC(Nc1ccc(S(=O)(=O)N=C(N)N)cc1)c1c2ccccc2nc2ccccc12 (stereo unspecified)	–	76.8 µM	–	–	–	> 100 µM	–	–	–	99.4 µM	–	> 100 µM	–	> 100 µM	–	> 100 µM	–	> 10 µM	55.5 µM	–
O=C(c1ccccc1)C1OC1c1ccc([N+](=O)[O-])cc1 (stereo unspecified)	4.71 µM	> 100 µM	4.76 µM	65.9 µM	2.98 µM	12.9 µM	3.33 µM	35.2 µM	–	–	8.73 µM	> 100 µM	24.9 µM	> 100 µM	10.1 µM	> 100 µM	3.17 µM	12.6 µM	–	–
CC12CCC3(OCCO3)C(OC(=O)c3ccccc3)=C1CCC21OCCO1 (stereo unspecified)	–	> 100 µM	–	> 100 µM	–	> 100 µM	–	–	–	–	–	> 100 µM	–	> 100 µM	–	> 100 µM	–	> 100 µM	> 100 µM	–

From PubChem BioAssay (NCI)
